Test results from the CheMixHub viscosity set.

Experiment: xn = mol fraction of the nth substance listed

CCCCCO + CCCCCCC
Details	viscosity [mPa·s]
293.15 K, 100 kPa, x2 = 0.0249	3.71
293.15 K, 100 kPa, x2 = 0.081	3.099
293.15 K, 100 kPa, x2 = 0.1471	2.521
293.15 K, 100 kPa, x2 = 0.259	1.798
293.15 K, 100 kPa, x2 = 0.3365	1.429
293.15 K, 100 kPa, x2 = 0.3987	1.196
293.15 K, 100 kPa, x2 = 0.4734	0.975
293.15 K, 100 kPa, x2 = 0.5627	0.776
293.15 K, 100 kPa, x2 = 0.6484	0.641
293.15 K, 100 kPa, x2 = 0.734	0.544
293.15 K, 100 kPa, x2 = 0.8184	0.474
293.15 K, 100 kPa, x2 = 0.9043	0.42
293.2 K, 101 kPa, x1 = 0.3	0.655
293.8 K, 101 kPa, x1 = 0.5	0.924
293.9 K, 101 kPa, x1 = 0.051	0.491
298.15 K, 100 kPa, x2 = 0.0249	3.218
298.15 K, 100 kPa, x2 = 0.081	2.702
298.15 K, 100 kPa, x2 = 0.1471	2.211
298.15 K, 100 kPa, x2 = 0.259	1.591
298.15 K, 100 kPa, x2 = 0.3365	1.277
298.15 K, 100 kPa, x2 = 0.3987	1.076
298.15 K, 100 kPa, x2 = 0.4734	0.884
298.15 K, 100 kPa, x2 = 0.5627	0.712
298.15 K, 100 kPa, x2 = 0.6484	0.594
298.15 K, 100 kPa, x2 = 0.734	0.507
298.15 K, 100 kPa, x2 = 0.8184	0.445
298.15 K, 100 kPa, x2 = 0.9043	0.396
298.15 K, 101.33 kPa, x1 = 0.0652	0.4117
298.15 K, 101.33 kPa, x1 = 0.1304	0.4449
298.15 K, 101.33 kPa, x1 = 0.2489	0.5244
298.15 K, 101.33 kPa, x1 = 0.3595	0.6427
298.15 K, 101.33 kPa, x1 = 0.4654	0.8116
298.15 K, 101.33 kPa, x1 = 0.5682	1.041
298.15 K, 101.33 kPa, x1 = 0.6617	1.338
298.15 K, 101.33 kPa, x1 = 0.7552	1.713
298.15 K, 101.33 kPa, x1 = 0.8805	2.418
298.15 K, 101.33 kPa, x1 = 0.9606	3.057
303.15 K, 100 kPa, x2 = 0.0249	2.804
303.15 K, 100 kPa, x2 = 0.081	2.365
303.15 K, 100 kPa, x2 = 0.1471	1.945
303.15 K, 100 kPa, x2 = 0.259	1.415
303.15 K, 100 kPa, x2 = 0.3365	1.145
303.15 K, 100 kPa, x2 = 0.3987	0.971
303.15 K, 100 kPa, x2 = 0.4734	0.805
303.15 K, 100 kPa, x2 = 0.5627	0.655
303.15 K, 100 kPa, x2 = 0.6484	0.551
303.15 K, 100 kPa, x2 = 0.734	0.474
303.15 K, 100 kPa, x2 = 0.8184	0.417
303.15 K, 100 kPa, x2 = 0.9043	0.371
308.15 K, 100 kPa, x2 = 0.0249	2.453
308.15 K, 100 kPa, x2 = 0.081	2.08
308.15 K, 100 kPa, x2 = 0.1471	1.72
308.15 K, 100 kPa, x2 = 0.259	1.262
308.15 K, 100 kPa, x2 = 0.3365	1.03
308.15 K, 100 kPa, x2 = 0.3987	0.879
308.15 K, 100 kPa, x2 = 0.4734	0.739
308.15 K, 100 kPa, x2 = 0.5627	0.604
308.15 K, 100 kPa, x2 = 0.6484	0.515
308.15 K, 100 kPa, x2 = 0.734	0.438
308.15 K, 100 kPa, x2 = 0.8184	0.39
308.15 K, 100 kPa, x2 = 0.9043	0.349
308.15 K, 101.33 kPa, x1 = 0.0652	0.368
308.15 K, 101.33 kPa, x1 = 0.1304	0.3956
308.15 K, 101.33 kPa, x1 = 0.2489	0.4627
308.15 K, 101.33 kPa, x1 = 0.3595	0.5523
308.15 K, 101.33 kPa, x1 = 0.4654	0.6821
308.15 K, 101.33 kPa, x1 = 0.5682	0.841
308.15 K, 101.33 kPa, x1 = 0.6617	1.062
308.15 K, 101.33 kPa, x1 = 0.7552	1.353
308.15 K, 101.33 kPa, x1 = 0.8805	1.931
308.15 K, 101.33 kPa, x1 = 0.9606	2.382
313.15 K, 100 kPa, x2 = 0.0249	2.155
313.15 K, 100 kPa, x2 = 0.081	1.836
313.15 K, 100 kPa, x2 = 0.1471	1.526
313.15 K, 100 kPa, x2 = 0.259	1.132
313.15 K, 100 kPa, x2 = 0.3365	0.936
313.15 K, 100 kPa, x2 = 0.3987	0.798
313.15 K, 100 kPa, x2 = 0.4734	0.674
313.15 K, 100 kPa, x2 = 0.5627	0.557
313.15 K, 100 kPa, x2 = 0.6484	0.485
313.15 K, 100 kPa, x2 = 0.734	0.414
313.15 K, 100 kPa, x2 = 0.8184	0.366
313.15 K, 100 kPa, x2 = 0.9043	0.327

Cc1ccnc(C)c1 + C1CCCCC1
viscosity [mPa·s], 101 kPa
Details	x1 = 0.1087	x1 = 0.208	x1 = 0.3004	x1 = 0.407	x1 = 0.507	x1 = 0.6004	x1 = 0.6977	x1 = 0.8002	x1 = 0.9019
303 K	0.7378	0.6882	0.6701	0.6574	0.6585	0.6674	0.6805	0.7102	0.7412
313 K	0.6355	0.6204	0.6004	0.5891	0.5844	0.6004	0.6055	0.6285	0.6543
323 K	0.5624	0.533	0.5166	0.5092	0.5073	0.52	0.54	0.5502	0.583

CCCCCO + COC(=O)OC
101.3 kPa
Details	viscosity [mPa·s]
293.15 K, x2 = 0.0482	3.367
293.15 K, x2 = 0.0991	2.836
293.15 K, x2 = 0.1941	2.11
293.15 K, x2 = 0.2974	1.605
293.15 K, x2 = 0.3939	1.304
293.15 K, x2 = 0.4993	1.092
293.15 K, x2 = 0.6	0.939
293.15 K, x2 = 0.7013	0.81
293.15 K, x2 = 0.8013	0.704
293.15 K, x2 = 0.8915	0.635
293.15 K, x2 = 0.9503	0.619
298.15 K, x2 = 0.0457	2.905
298.15 K, x2 = 0.1016	2.46
298.15 K, x2 = 0.1979	1.88
298.15 K, x2 = 0.3057	1.441
298.15 K, x2 = 0.4024	1.179
298.15 K, x2 = 0.503	0.988
298.15 K, x2 = 0.5793	0.878
298.15 K, x2 = 0.7034	0.739
298.15 K, x2 = 0.8003	0.655
298.15 K, x2 = 0.9018	0.597
298.15 K, x2 = 0.9494	0.586
303.15 K, x1 = 0.0192	0.542
303.15 K, x2 = 0.0539	2.488
303.15 K, x2 = 0.0906	2.228
303.15 K, x2 = 0.1979	1.66
303.15 K, x2 = 0.2613	1.416
303.15 K, x2 = 0.3902	1.066
303.15 K, x2 = 0.4928	0.89
303.15 K, x2 = 0.5918	0.759
303.15 K, x2 = 0.6923	0.661
303.15 K, x2 = 0.792	0.601
303.15 K, x2 = 0.8943	0.56
313.15 K, x2 = 0.0467	1.972
313.15 K, x2 = 0.1037	1.678
313.15 K, x2 = 0.2514	1.161
313.15 K, x2 = 0.3005	1.046
313.15 K, x2 = 0.3996	0.876
313.15 K, x2 = 0.5052	0.75
313.15 K, x2 = 0.6059	0.659
313.15 K, x2 = 0.7024	0.596
313.15 K, x2 = 0.8053	0.54
313.15 K, x2 = 0.9051	0.502
313.15 K, x2 = 0.9651	0.494
